Common to all, as to type: cell-based
Assay [1] addresses T1, E3 ubiquitin-protein ligase UHRF1 (Homo sapiens) (UniProt Q96T88).
T1 sequence (whole entry): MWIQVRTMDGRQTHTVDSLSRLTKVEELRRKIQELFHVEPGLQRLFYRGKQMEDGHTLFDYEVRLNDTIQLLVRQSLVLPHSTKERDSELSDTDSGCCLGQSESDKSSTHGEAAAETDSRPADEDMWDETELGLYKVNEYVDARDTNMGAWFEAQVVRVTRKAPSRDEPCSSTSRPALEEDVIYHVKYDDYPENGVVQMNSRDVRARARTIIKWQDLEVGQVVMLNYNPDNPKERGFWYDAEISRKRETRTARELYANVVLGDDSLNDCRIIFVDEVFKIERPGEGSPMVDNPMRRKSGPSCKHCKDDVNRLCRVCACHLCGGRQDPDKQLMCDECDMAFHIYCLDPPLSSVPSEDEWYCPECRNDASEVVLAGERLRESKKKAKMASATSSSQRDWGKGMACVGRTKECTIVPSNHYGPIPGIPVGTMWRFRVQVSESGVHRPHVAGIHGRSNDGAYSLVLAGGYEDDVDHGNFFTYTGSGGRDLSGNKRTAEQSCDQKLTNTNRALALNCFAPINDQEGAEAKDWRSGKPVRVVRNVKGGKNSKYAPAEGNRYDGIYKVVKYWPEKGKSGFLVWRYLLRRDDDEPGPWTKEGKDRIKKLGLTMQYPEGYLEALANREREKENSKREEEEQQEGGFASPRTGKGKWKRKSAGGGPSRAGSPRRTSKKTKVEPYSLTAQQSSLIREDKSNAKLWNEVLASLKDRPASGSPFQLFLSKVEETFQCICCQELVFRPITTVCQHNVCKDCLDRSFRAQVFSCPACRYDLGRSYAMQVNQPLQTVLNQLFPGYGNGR
The assay is described as follows: Inhibition of UHRF1 in human MCF7 cells assessed as decrease in methylation at RAR beta exon at 15 uM after 72 hrs by methylation specific-PCR method.

In assay [2] the target is T1, E3 ubiquitin-protein ligase UHRF1 (Homo sapiens). Put plainly: Inhibition of UHRF1 in human MCF7 cells assessed as DNA global demethylation by measuring 5-methylcytosine level at 15 uM after 72 hrs by HPLC-MS/MS analysis (reference value: 1.7 +/- 0.36%). More on the design: scale not given: the % may be the effect or the level left.
Assay [3] has the same target. Put plainly: Inhibition of UHRF1 in human MCF7 cells assessed as reduction in global 5-methylcytosine level at 15 uM after 72 hrs by HPLC-MS/MS analysis relative to control.
The target is the same in assay [4]. The assay is described as follows: Inhibition of UHRF1/DNMT1 protein interaction in human U251 cells at 15 uM after 4 hrs by DAPI staining based P-LISA. Particulars: U-251.
For assay [5] the target is unchanged. The assay is described as follows: Inhibition of UHRF1/DNMT1 protein interaction in human U251 cells assessed as reduction in 5-methylcytosine level at 15 uM after 72 hrs by ELISA relative to control. As to conditions: U-251. On the technique in general: In an ELISA, binding on a coated surface is turned into a signal by an enzyme label.

Calls of active or inactive are those of the source. The rule behind the calls is not given here.

Turning to `O=C1NC(=O)C2(CC2)C(=O)N1`, the inhibition (as a rule, the change of the read-out against control, counted positive when it falls) in assay [1] was “Active”. Moreover, in assay [2], the Activity stood at 0.82%.

In the case of `CCOC(=O)c1cnc(=O)[nH]c1N`, the “RAR beta exon methylation decrease (activity call)” value (“RAR beta exon methylation decrease” for short) in assay [1] was “Active”. Moreover, the Activity in assay [2] stood at 0.87%.

Regarding `CC(=O)c1c[nH]c(=O)[nH]c1=O`, the “RAR beta exon methylation decrease” value in assay [1] is “Active”. The inhibition in assay [3] is 56%. For the same compound, the Activity in assay [2] was 0.74%.

Consider `Nc1ncn([C@@H]2O[C@H](CO)[C@@H](O)[C@H]2O)c(=O)n1`, for which the “RAR beta exon methylation decrease” value in assay [1] was “Active”. In assay [3], the inhibition was 48%. Moreover, the Activity in assay [2] was 0.88%.

In the case of `CN(C)c1c[nH]c(=O)[nH]c1=O`, in assay [1], the “RAR beta exon methylation decrease” value was “Active”. Further, the Activity in assay [2] was 0.86%.

For the compound `C/C(NO)=C1\C=NC(=O)NC1=O`, the inhibition in assay [4] and in assay [5] was 50% each time.

On to `c1ccc2c(C3CCN(CCN4CCOCC4)C3)c[nH]c2c1` (stereo unspecified), for which, in assay [1], the “RAR beta exon methylation decrease” value was “Active”. Also, the Activity in assay [2] came to 0.99%.
